The results in this text go back to ChEMBL document CHEMBL1949602, “Bacterial biofilm formation inhibitory activity revealed for plant derived natural compounds” (Bioorg Med Chem, 2012).

Values after ≈ are worked out from the molar mass of the structure shown. Active and inactive are the calls of the source. The rule behind the calls is not given here. Some results are limits rather than exact numbers.

By MIC is commonly meant the least concentration at which growth counts as inhibited. As usually defined, the MBC is the lowest tested concentration that kills the bacteria rather than only halting them. As a reminder, the EC50 is the midpoint of the concentration-response curve.

The subject of test [1] is Staphylococcus epidermidis. The experiment in a line: Antibacterial activity against Staphylococcus epidermidis ATCC 35984 assessed as modification of bacterial surface protein pattern at 14 uM by zymographic analysis. The class given is functional, organism-based.
In test [2] the test system is Staphylococcus epidermidis. The experiment in a line: Antibacterial activity against Staphylococcus epidermidis ATCC 35984 assessed as inhibition of planktonic growth at sub-MIC measured up to 25 hrs. It counts as functional, organism-based.
Test [3] has as its system Staphylococcus aureus. As to the kind of experiment: Antibacterial activity against Staphylococcus aureus ATCC 6538P by broth microdilution method. The class given is functional.
The test system of test [4] is Staphylococcus epidermidis. The experiment in a line: Antibacterial activity against Staphylococcus epidermidis ATCC 35984 incubated in drug free medium for 18 hrs after MIC determination by broth microdilution method. It counts as functional. The note with it: ATCC 35984, 18 h. In general terms: Broth dilution looks for growth in wells or tubes with falling amounts of substance.

For test [5], the system named is Staphylococcus aureus. The experiment in a line: Antibacterial activity against Staphylococcus aureus ATCC 6538P incubated in drug free medium for 18 hrs after MIC determination by broth microdilution method. It counts as functional.
Test [6] deals with Staphylococcus epidermidis. The experiment in a line: Antibacterial activity against Staphylococcus epidermidis ATCC 35984 assessed as inhibition of biofilm formation after 24 hrs by crystal violet staining. Particulars: ATCC 35984, 24 h. The class given is functional, organism-based.
The test system of test [7] is Staphylococcus aureus. As to the kind of experiment: Antibacterial activity against Staphylococcus aureus ATCC 6538P assessed as change in bacterial surface protein level at sub-MIC by SDS-PAGE analysis. It counts as functional, organism-based.
Test [8] concerns Staphylococcus aureus. The experiment in a line: Antibacterial activity against Staphylococcus aureus ATCC 6538P assessed as inhibition of biofilm formation after 24 hrs by crystal violet staining. It counts as functional, organism-based.
Test [9] deals with Staphylococcus epidermidis. The experiment in a line: Antibacterial activity against Staphylococcus epidermidis ATCC 35984 by broth microdilution method. The class given is functional.
For test [10], the system named is Staphylococcus aureus. As to the kind of experiment: Antibacterial activity against Staphylococcus aureus ATCC 6538P assessed as inhibition of planktonic growth at sub-MIC measured up to 25 hrs. It counts as functional, organism-based.
Test [11] deals with Staphylococcus aureus. As to the kind of experiment: Antibacterial activity against Staphylococcus aureus ATCC 6538P assessed as change in bacterial surface protein level at sub-MIC by zymographic analysis. The class given is functional, organism-based.
Test [12] has as its system Staphylococcus epidermidis. The experiment in a line: Antibacterial activity against Staphylococcus epidermidis ATCC 35984 assessed as modification of bacterial surface protein pattern at 4 uM by zymographic analysis. The class given is functional, organism-based.
The subject of test [13] is Staphylococcus epidermidis. The experiment in a line: Antibacterial activity against Staphylococcus epidermidis ATCC 35984 assessed as disappearance of bacterial surface protein level at sub-MIC by SDS-PAGE analysis. The class given is functional, organism-based.
Test [14] deals with Staphylococcus epidermidis. As to the kind of experiment: Antibacterial activity against Staphylococcus epidermidis ATCC 35984 assessed as disappearance of bacterial surface proteins level at sub-MIC by zymographic analysis. The class given is functional, organism-based.
Test [15] relates to Staphylococcus epidermidis. As to the kind of experiment: Antibacterial activity against Staphylococcus epidermidis ATCC 35984 assessed as modification of bacterial surface protein pattern at 8 uM by zymographic analysis. The class given is functional, organism-based.
Test [16] can be described thus: Ratio of MIC for Staphylococcus aureus ATCC 6538P to MIC for Staphylococcus epidermidis ATCC 35984. The class given is functional.

Regarding `Oc1ccc(-c2cc3ccccc3o2)c(O)c1`, the result in test [1], in [2], in test [7], in test [10] and in test [11] was inactive. Besides, the MIC in test [3] and in [9] was 55.3 µM (≈ 12.5 µg/mL) each time. Besides, the MBC in test [4] and in test [5] was 55.3 µM (≈ 12.5 µg/mL) throughout. Also, the 50% effective concentration (EC50) amounted to 23.5 µM in test [6] and 8.2 µM in test [8].

On to `COc1ccc2c(c[n+](C)c3c4cc5c(cc4ccc23)OCO5)c1OC` [CHELERYTHRINE CHLORIDE], for which the result in test [2], in test [7], in test [10], in test [11] and in test [12] was inactive. The MIC in test [3] and in [9] was 16.3 µM throughout. For the same compound, the MBC in test [4] and in test [5] was more than 260 µM in each case. Moreover, the concentration giving a half-maximal response (EC50) in test [6] came out at 8.6 µM; in [8], 15.2 µM.

Regarding `Oc1cc(O)c2c(c1)O[C@@]1(c3ccc(O)c(O)c3)Oc3cc(O)c4c(c3[C@@H]2[C@H]1O)O[C@H](c1ccc(O)c(O)c1)[C@H](O)C4` [PROANTHOCYANIDIN A2], the outcome in [2], in [7], in test [10] and in test [11] was inactive. For the same compound, the MIC in [3] and in test [9] was more than 169 µM throughout. For the same compound, the minimum bactericidal concentration (MBC) in [4] and in [5] was more than 169 µM each time. Also, the result in test [13] and in test [14] was Active. The concentration for a half-maximal effect (EC50) in test [6] was 7.6 µM; in test [8], 6.9 µM.

In the case of `C[n+]1cc2c3c(ccc2c2ccc4cc5c(cc4c21)OCO5)OCO3` [SANGUINARIUM], the result in [2], in test [7], in test [15], in test [10] and in test [11] was inactive. For the same compound, the figures for the minimal inhibitory concentration (MIC) in [3] and in test [9] were 34 µM and 8.5 µM, respectively. In addition, the MBC in test [4] and in test [5] was 34 µM throughout. Moreover, the result in [13] was Active. Moreover, the EC50 in test [6] stood at 4.4 µM; in test [8], 24.5 µM. Besides, the Ratio in test [16] came out at 4.
